Laboratory results reported in patent US20080260705A1, “Preventing Arrhythmias Associated with Cell Transplantation” (The Johns Hopkins University, priority 2004, published 2008).

How the values were obtained:
SkM:NRVM co-cultures = experiment: Pharmacological intervention for induced reentrant arrhythmias, optical mapping of mixed co-cultures; assay type: cell-based; details: n=12
Experimental: Human skeletal myoblasts were obtained from Cambrex (Walkersville, Md.) and grown in myoblast basal growth medium (SkBM, Clonetics) containing 10% fetal bovine serum, recombinant human epidermal factor (10 ng/ml), dexamethasone (3 μg/ml), L-glutamine, Gentamicin and Amphotericin-B, at 37° C. and 5% CO2. (Vials obtained from Cambrex contained 70-80% myoblasts, and the remainder were fibroblasts). The cells were seeded at 3,500 cells/cm^2 and maintained at cell densities of 60-70% to prevent myotube formation during the culture process. Cells were transduced with lentivirus on their second passage and frozen at −80° C. or amplified up to 10 population doublings. For co-cultures, myoblasts were dissociated using trypsin, counted and then used.
Cells were re-suspended in M199 culture medium (Life Technologies, Rockville, Md.), supplemented with 10% heat-inactivated fetal bovine serum (Life Technologies), differentially pre-plated in two 45 minute steps, and then counted using a hemocytometer. For control experiments, 10^6 cells were plated on 22 mm plastic coverslips coated with fibronectin (25 μg/ml). On day 2 after cell plating, serum was reduced to 2%.
Myoblasts and NRVMs were co-cultured (isotropic) on 22 mm plastic cover slips (coated with fibronectin, 25 μg/ml) for 9-11 days and then used for optical mapping. In an initial set of experiments, 0.5×10^6 NRVMs were plated over half of the cover slip, with the other half covered by a PDMS stamp coated with fibronectin (50 μg/ml). The PDMS stamp was removed 24 hours later and 0.5×10^6 myoblasts transduced with Lv-GFP were then plated. […] In a second set of experiments, the myoblasts (transduced with LvGFP) and NRVMs were plated at the same time in varying ratios: 1:1, 1:4 and 1:9 to study the electrophysiologic consequences of mixing the two cell types.
(§1) Coverslips were visually inspected under a microscope. Monolayers with obvious gaps in confluency and non-beating cultures were rejected. The coverslips were placed in a custom-designed chamber, stained with 5 μM di-4-ANEPPS (Molecular Probes; Eugene, Oreg.) for 5 min and continuously superfused with warm (36.5° C.) oxygenated Tyrode solution consisting of (in mM) 135 NaCl, 5.4 KCl, 1.8 CaCl2, 1 MgCl2, 0.33 NaH2PO4, 5 HEPES, and 5 Glucose. A unipolar point or area electrode (4 bipolar line electrodes) was used to stimulate the cells in culture. Action potentials were recorded from 253 sites using a modified custom-built contact fluorescence imaging system.^15 The recording chamber was placed directly above a fiber bundle with fibers arranged in a 17 mm-diameter hexagonal array. A light emitting diode (LED) light source with an interference filter (530+/−25 mm) delivered excitation light to the chamber. […]

L-type calcium channel = experiment: Nitrendipine dose response curve: APD and conduction velocity by optical mapping; assay type: cell-based; details: nitrendipine 5 μM
Experimental: as §1
Baseline drift was reduced by subtraction of a fitted polynomial curve from the optical signal. […] To compare velocities among different episodes in the same monolayer, conduction velocity was calculated along the same path and averaged over different stimulus responses. […] Data are expressed as Mean +/−SEM unless stated otherwise. Differences between means were assessed using the Student's t test or Fischer's exact test.

| SMILES | termination of reentry (SkM:NRVM co-cultures; lidocaine 200 μM superfused, co-cultures) | slowed the reentry rate (SkM:NRVM co-cultures; lidocaine 200 μM superfused, induced reentry in co-cultures) | slowed the reentrant rhythms (SkM:NRVM co-cultures; nitrendipine 5 μM superfused, before termination) | time to abrupt termination of reentry (SkM:NRVM co-cultures; nitrendipine 5 μM, in all co-cultures) [min] | shortened APD (L-type calcium channel) [%] |
| --- | --- | --- | --- | --- | --- |
| CCN(CC)CC(=O)Nc1c(C)cccc1C [lidocaine] | did not terminate it in the majority of co-cultures | 70-80% |  |  |  |
| CCOC(=O)C1=C(C)NC(C)=C(C(=O)OC)C1c1cccc([N+](=O)[O-])c1 (centres unmarked) [nitrendipine] |  |  | 10-20% | ≤ 5 | 50 |
